According to PubChem BioAssay (NCI):
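Here, GI50 denotes the concentration required for 50% inhibition of growth. TGI marks complete inhibition of growth.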

Experiments:
Assay in all cases: inhibition of tumour cell growth, NCI panel, 384-well format
786-0 renal = system: 786-0 renal
SN12C renal = system: SN12C renal
HL-60(TB) leukemia = system: HL-60(TB) leukemia
HOP-62 NSCLC = system: HOP-62 NSCLC
SK-MEL-28 melanoma = system: SK-MEL-28 melanoma
HOP-92 NSCLC = system: HOP-92 NSCLC
SK-MEL-5 melanoma = system: SK-MEL-5 melanoma
TK-10 renal = system: TK-10 renal
NCI-H522 lung = system: NCI-H522 lung
NCI-H23 lung = system: NCI-H23 lung
NCI-H226 lung = system: NCI-H226 lung
IGROV1 ovarian = system: IGROV1 ovarian
MDA-MB-435 melanoma = system: MDA-MB-435 melanoma

C[C@@H](C(=O)Nc1ccc(Cl)cc1)C1CCC(c2ccnc3ccc(F)cc23)CC1 (stereo partly specified)
GI50 (786-0 renal): 10.8 µM
TGI (786-0 renal): 27 µM
GI50 (SN12C renal): 12.7 µM
TGI (SN12C renal): 28.2 µM
GI50 (HL-60(TB) leukemia): 1.35 µM
TGI (HL-60(TB) leukemia): 2.9 µM
GI50 (HOP-62 NSCLC): 12.8 µM
TGI (HOP-62 NSCLC): 29.5 µM
GI50 (SK-MEL-28 melanoma): 20.6 µM
TGI (SK-MEL-28 melanoma): > 92 µM
GI50 (HOP-92 NSCLC): 8.04 µM
TGI (HOP-92 NSCLC): 29.4 µM
GI50 (SK-MEL-5 melanoma): 4.31 µM
TGI (SK-MEL-5 melanoma): 16.2 µM
GI50 (TK-10 renal): 11.3 µM
TGI (TK-10 renal): 86.2 µM
GI50 (NCI-H522 lung): 3.24 µM
TGI (NCI-H522 lung): 15.9 µM
GI50 (NCI-H23 lung): 3.76 µM
TGI (NCI-H23 lung): 16 µM
GI50 (NCI-H226 lung): 12.2 µM
TGI (NCI-H226 lung): 28 µM
GI50 (IGROV1 ovarian): 8.55 µM
TGI (IGROV1 ovarian): > 47.7 µM
GI50 (MDA-MB-435 melanoma): 16.9 µM
TGI (MDA-MB-435 melanoma): 36.7 µM
